# Laboratory results reported in patent US20140243292A1, “SUBSITUTED 2-(CHROMAN-6-YLOXYL)-THIAZOLES AND THEIR USE AS PHARMACEUTICALS” (Sanofi, priority 2011, published 2014).
# Where a name gives a salt, the structure may show the parent alone.
# Target: T1, human NCX1 (Homo sapiens, UniProt P32418)
# T1 construct: expressed in transfected cells
# Assay: NCX1 inhibition, reverse mode (Ca2+ influx into cells), FLIPR Fluo-4 assay
# Format: cell-based
# Conditions: inhibition of NCX1 in reverse mode (Ca2+ influx into cells); read-out: NCX1rv IC50
# Description: The sodium/calcium exchanger NCX1 can transport calcium ions and sodium ions through the cell membrane. The transport is an exchange of Ca^2+ and Na^+ in two directions depending on membrane potential and ion gradients. At the first direction, named “forward mode” or “calcium export mode”, Ca^2+ is transported out of the cell and Na^+ is transported into the cell. At the other direction, named “reverse mode” or “calcium import mode”, the transport directions are vice versa. The effect of the compounds of the invention on NCX1 was determined in CHO cells stably expressing human NCX1 (gene symbol SLC8A1; cf. WO 2009/115238). The assay is based on the monitoring of intracellular Ca^2+ concentrations using a calcium-sensitive fluorescence dye which is detected by means of a FLIPR device (Fluorimetric Imaging Plate Reader, Molecular Devices).
# The assay is based on the monitoring of intracellular Ca^2+ concentrations using the calcium-sensitive dye Fluo-4. CHO cells expressing NCX1 were loaded with the dye by means of the acetoxymethyl ester Fluo-4 AM (Invitrogen, F14202), which is cleaved intracellularly by esterase activity to yield the charged species of free Fluo-4. After an preincubation period with the test compound, Gramicidine (Sigma, G5002) was added. Gramicidine is an ionophor for Na^+ ions mediating an increase of intracellular Na^+ ions. Consequently, intracellular Na^+ ions are exchanged against extracellular Ca^2+ ions (Ca^2+ influx, reverse mode). The intracellular elevation of Ca^2+ ions was detected by measuring the fluorescence of Fluo-4 at a wavelength of 520 nm by a FLIPR device.
# Briefly, for the reverse mode transport assay 18000 cells per well were seeded into a 96 well microplate (Corning COSTAR 3904) and incubated overnight in culture medium (1× Nut Mix F12 (Ham) (Gibco, 21765-029); 10% (v/v) fetal calf serum (PAA Gold, A15-649); 450 μg/ml Geneticin (Gibco, 10131-027)). A total volume of 100 μl medium per well was used. For the preparation of the FLIPR assay, the culture medium was removed from the plates and 100 μl of dye solution (2 μM Fluo-4 AM; 0.02% (v/v) Pluronic F-127 (20%, Invitrogen, P3000MP); 0.1% (v/v) bovine albumin solution (30% (v/v), Sigma, A9205) in assay buffer (133.8 mM NaCl (Sigma, S5886); 4.7 mM KCl (Sigma, P3911); 1.25 mM MgCl2 (Merck, 1.05833.0250); 3.5 mM CaCl2 (Merck, 1.02083.0250); 5 mM glucose (Sigma, G7021); 10 mM Hepes (Sigma, H4034); 0.01% (v/v) Pluronic F-127 (5%, Sigma, P2443); 2.5 mM Probenecid (Maybridge, SB00915EB); pH 7.4)) were added into each well. The plates were incubated in the dark at room temperature for 80 min. After the incubation period, the dye solution was removed and the wells were washed with 100 μl of assay buffer. Then 80 μl of a solution of the test compound in assay buffer in different concentrations were added into the wells. The plates were incubated at 16° C. for 45 min. Meanwhile a 60 μM solution of Gramicidine in assay buffer (4° C.) was prepared and stored in the wells of a 96 well microplate (96 well microplate, polypropylene, U-shape (Greiner Bio-One, 650201)) at 4° C. until measurement was started. The fluorescence monitoring was performed at 240 measuring points with measurement intervals of 2 sec. After the fifth measuring point, 40 μl of the Gramicidine solution were added to each well of the assay plates to give a final Gramicidine concentration of 20 μM. For the determination of the IC50 values the minimal fluorescence value was subtracted from the maximal fluorescence value for all measuring points. The calculation of the IC50 values via the percentage inhibitions of Ca^2+ influx into cells (reverse mode) effected by the test compound was performed in Biost@t Speed 2.0.
row,Compound,IC50
1,2-((S)-2-Phenyl-chroman-6-yloxy)-thiazole-5-carboxylic acid (3-amino-propyl)-amide [compound 289],300 nM
2,"2-[2-(2,6-Dimethyl-phenyl)-chroman-6-yloxy]-thiazole-5-carboxylic acid [2-(2-oxo-imidazolidin-1-yl)-ethyl]-amide [compound 347]",1500 nM
3,CCn1cc(CNC(=O)c2cnc(Oc3ccc4c(c3)CCC(c3ccccc3)O4)s2)cn1 (stereo not shown) [compound 1],300 nM
4,CCn1nccc1CNC(=O)c1cnc(Oc2ccc3c(c2)CCC(c2ccccc2)O3)s1 (stereo not shown) [compound 3],400 nM
5,O=C(NCc1ccncc1)c1cnc(Oc2ccc3c(c2)CCC(c2ccccc2)O3)s1 (stereo not shown) [compound 4],300 nM
6,Cn1nccc1CNC(=O)c1cnc(Oc2ccc3c(c2)CCC(c2ccccc2)O3)s1 (stereo not shown) [compound 5],400 nM
7,CC(NC(=O)c1cnc(Oc2ccc3c(c2)CCC(c2ccccc2)O3)s1)c1ccncc1 (stereo not shown) [compound 6],400 nM
8,Cc1ncsc1CCNC(=O)c1cnc(Oc2ccc3c(c2)CCC(c2ccccc2)O3)s1 (stereo not shown) [compound 7],300 nM
9,Cc1c(C(C)NC(=O)c2cnc(Oc3ccc4c(c3)CCC(c3ccccc3)O4)s2)cnn1C (stereo not shown) [compound 8],800 nM
10,Cc1cc(CNC(=O)c2cnc(Oc3ccc4c(c3)CCC(c3ccccc3)O4)s2)ccn1 (stereo not shown) [compound 9],800 nM
11,COc1cc(CNC(=O)c2cnc(Oc3ccc4c(c3)CCC(c3ccccc3)O4)s2)ccn1 (stereo not shown) [compound 10],600 nM
12,Nc1cc(CNC(=O)c2cnc(Oc3ccc4c(c3)CCC(c3ccccc3)O4)s2)ccn1 (stereo not shown) [compound 11],400 nM
13,Nc1cc(CNC(=O)c2cnc(Oc3ccc4c(c3)CCC(c3cccc(F)c3)O4)s2)ccn1 (stereo not shown) [compound 12],200 nM
14,"O=C(NCc1cnc(Oc2ccc3c(c2)CCC(c2ccccc2)O3)s1)c1cccnc1 (stereo not shown) [compound 15, hydrochloride]",100 nM
15,"O=C(Cc1cccnc1)NCc1cnc(Oc2ccc3c(c2)CCC(c2ccccc2)O3)s1 (stereo not shown) [compound 16, hydrochloride]",100 nM
16,"O=C(NCc1nnc2ccccn12)c1cnc(Oc2ccc3c(c2)CCC(c2cccc(F)c2)O3)s1 (stereo not shown) [compound 17, hydrochloride]",200 nM
17,"O=C(Cc1ccccn1)NCc1cnc(Oc2ccc3c(c2)CCC(c2ccccc2)O3)s1 (stereo not shown) [compound 19, hydrochloride]",100 nM
18,Cc1nccc(CNC(=O)c2cnc(Oc3ccc4c(c3)CCC(c3ccccc3)O4)s2)n1 (stereo not shown) [compound 21],100 nM
19,CC[C@H](NC(=O)c1cnc(Oc2ccc3c(c2)CCC(c2ccccc2)O3)s1)c1ccc(OC)nc1 (stereo partly shown) [compound 22],400 nM
20,Cc1nn(C)cc1C(C)NC(=O)c1cnc(Oc2ccc3c(c2)CCC(c2ccccc2)O3)s1 (stereo not shown) [compound 23],800 nM
21,O=C(NCc1ccno1)c1cnc(Oc2ccc3c(c2)CCC(c2ccccc2)O3)s1 (stereo not shown) [compound 24],100 nM
22,O=C(NCc1ccnc(N2CCCC2)c1)c1cnc(Oc2ccc3c(c2)CCC(c2ccccc2)O3)s1 (stereo not shown) [compound 25],400 nM
23,CN(Cc1ccnc(N2CCCC2)c1)C(=O)c1cnc(Oc2ccc3c(c2)CCC(c2ccccc2)O3)s1 (stereo not shown) [compound 26],300 nM
24,CC[C@@H](NC(=O)c1cnc(Oc2ccc3c(c2)CCC(c2ccccc2)O3)s1)c1ccc(OC)nc1 (stereo partly shown) [compound 27],300 nM
25,O=C(NCc1ccnc(N2CCOCC2)c1)c1cnc(Oc2ccc3c(c2)CCC(c2ccccc2)O3)s1 (stereo not shown) [compound 28],200 nM
26,CN(C)c1cc(CNC(=O)c2cnc(Oc3ccc4c(c3)CCC(c3ccccc3)O4)s2)ccn1 (stereo not shown) [compound 29],100 nM

row,Compound,IC50
1,"O=C(NCc1ccncc1)c1sc(Oc2ccc3c(c2)CCC(c2ccccc2)O3)nc1C(F)(F)F (stereo not shown) [compound 30, hydrochloride]",300 nM
2,Cc1n[nH]c(C)c1C(C)NC(=O)c1cnc(Oc2ccc3c(c2)CCC(c2ccccc2)O3)s1 (stereo not shown) [compound 31],1000 nM
3,Cc1cc(C)nc(CNC(=O)c2cnc(Oc3ccc4c(c3)CCC(c3ccccc3)O4)s2)n1 (stereo not shown) [compound 33],200 nM
4,Cc1noc(C)c1CCNC(=O)c1cnc(Oc2ccc3c(c2)CCC(c2ccccc2)O3)s1 (stereo not shown) [compound 34],200 nM
5,O=C(NCc1nnc2ccccn12)c1cnc(Oc2ccc3c(c2)CCC(c2ccccc2)O3)s1 (stereo not shown) [compound 35],600 nM
6,O=C(NCc1ccncc1)c1cnc(Oc2ccc3c(c2)CC[C@@H](c2ccccc2)O3)s1 [compound 36],100 nM
7,O=C(NCc1ccncc1)c1cnc(Oc2ccc3c(c2)CC[C@H](c2ccccc2)O3)s1 [compound 37],200 nM
8,Cc1noc(C)c1CCCNC(=O)c1cnc(Oc2ccc3c(c2)CCC(c2ccccc2)O3)s1 (stereo not shown) [compound 38],300 nM
9,O=C(NCc1ccncc1Cl)c1cnc(Oc2ccc3c(c2)CCC(c2ccccc2)O3)s1 (stereo not shown) [compound 40],400 nM
10,O=C(NCc1cn2ccccc2n1)c1cnc(Oc2ccc3c(c2)CCC(c2ccccc2)O3)s1 (stereo not shown) [compound 41],5000 nM
11,O=C(NCc1ccnc(O)c1)c1cnc(Oc2ccc3c(c2)CCC(c2ccccc2)O3)s1 (stereo not shown) [compound 42],200 nM
12,"O=C(Cc1ccncc1)NCc1cnc(Oc2ccc3c(c2)CCC(c2ccccc2)O3)s1 (stereo not shown) [compound 43, hydrochloride]",300 nM
13,"O=C(NCc1cnc(Oc2ccc3c(c2)CCC(c2cccc(F)c2)O3)s1)c1cccnc1 (stereo not shown) [compound 44, hydrochloride]",200 nM
14,"O=C(Cc1cccnc1)NCc1cnc(Oc2ccc3c(c2)CCC(c2cccc(F)c2)O3)s1 (stereo not shown) [compound 45, hydrochloride]",100 nM
15,"O=C(Cc1ccncc1)NCc1cnc(Oc2ccc3c(c2)CCC(c2cccc(F)c2)O3)s1 (stereo not shown) [compound 46, hydrochloride]",200 nM
16,"O=S(=O)(NCc1cnc(Oc2ccc3c(c2)CCC(c2ccccc2)O3)s1)c1cccnc1 (stereo not shown) [compound 47, hydrochloride]",100 nM
17,O=C(NCc1cnc(Oc2ccc3c(c2)CCC(c2ccccc2)O3)s1)c1ccno1 (stereo not shown) [compound 48],100 nM
18,O=C(NCc1ccno1)c1cnc(Oc2ccc3c(c2)CCC(c2cccc(F)c2)O3)s1 (stereo not shown) [compound 49],100 nM
19,"Cn1cnc(S(=O)(=O)NCc2cnc(Oc3ccc4c(c3)CCC(c3ccccc3)O4)s2)c1 (stereo not shown) [compound 50, 1-Methyl-1H-imidazole-4-sulfonic acid [2-(2-phenyl-chroman-6-yloxy)-thiazol-5-ylmethyl]-amide hydrochloride]",200 nM
20,Cc1c(CNC(=O)c2cnc(Oc3ccc4c(c3)CCC(c3cccc(F)c3)O4)s2)cnn1C (stereo not shown) [compound 51],200 nM
21,C[C@H](NC(=O)c1cnc(Oc2ccc3c(c2)CCC(c2ccccc2)O3)s1)c1nc(C2CC2)cs1 (stereo partly shown) [compound 52],400 nM
22,CC(C)c1csc([C@H](C)NC(=O)c2cnc(Oc3ccc4c(c3)CCC(c3ccccc3)O4)s2)n1 (stereo partly shown) [compound 53],700 nM
23,C[C@H](NC(=O)c1cnc(Oc2ccc3c(c2)CCC(c2ccccc2)O3)s1)c1nccs1 (stereo partly shown) [compound 54],200 nM
24,"O=C(NCc1ccncc1)c1cnc(Oc2ccc3c(c2Cl)CCC(c2ccccc2)O3)s1 (stereo not shown) [compound 55, hydrochloride]",1200 nM
25,"Cc1nccc(CNC(=O)c2cnc(Oc3ccc4c(c3)CCC(c3cccc(F)c3)O4)s2)n1 (stereo not shown) [compound 56, hydrochloride]",200 nM
26,"NCc1cnc(Oc2ccc3c(c2)CCC(c2ccccc2)O3)s1 (stereo not shown) [compound 57, C-[2-(2-Phenyl-chroman-6-yloxy)-thiazol-5-yl]-methylamine]",100 nM
